# How the values were obtained:
# [1] = Volume of distribution at steady state in Sprague-Dawley rat at 1 mg/kg, iv or po measured after 0.033 to 24 hrs by LC/MS/MS analysis; settings: in vivo
# in vitro [2] = settings: rat, microsomes
# [3] = target: Voltage-gated inwardly rectifying potassium channel KCNH2 (Homo sapiens, UniProt Q12809); experiment: Inhibition of human ERG expressed in HEK293 cells incubated for 5 mins by patch clamp assay
# [4] = Kinetic solubility of compound at pH 7.4; settings: buffer
# in vivo [5] = settings: cynomolgus monkey, po, 1 mg/kg
# Estrogen receptor [6] = target: T1, Estrogen receptor (Homo sapiens, UniProt P03372)
# T1 sequence (P03372 whole entry): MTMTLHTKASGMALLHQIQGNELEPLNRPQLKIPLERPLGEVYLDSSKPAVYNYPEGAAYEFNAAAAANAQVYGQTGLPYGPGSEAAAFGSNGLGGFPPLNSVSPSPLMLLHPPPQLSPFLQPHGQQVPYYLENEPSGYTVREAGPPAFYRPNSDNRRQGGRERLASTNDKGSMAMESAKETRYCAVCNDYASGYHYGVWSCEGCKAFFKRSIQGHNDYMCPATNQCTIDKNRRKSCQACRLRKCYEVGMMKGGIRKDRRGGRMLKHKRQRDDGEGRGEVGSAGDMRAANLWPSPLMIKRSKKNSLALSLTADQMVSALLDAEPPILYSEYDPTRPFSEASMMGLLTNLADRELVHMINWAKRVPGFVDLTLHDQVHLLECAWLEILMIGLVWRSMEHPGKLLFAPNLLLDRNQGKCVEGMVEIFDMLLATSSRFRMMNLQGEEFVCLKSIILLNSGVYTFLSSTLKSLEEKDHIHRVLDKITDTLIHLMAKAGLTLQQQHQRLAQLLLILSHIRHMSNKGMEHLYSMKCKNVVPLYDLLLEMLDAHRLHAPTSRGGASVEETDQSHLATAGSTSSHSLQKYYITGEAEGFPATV
# Description: Antagonist activity at estrogen receptor in human T47D cells incubated for 18 hrs by ultra high sensitivity luminescence reporter gene assay
# [7] = Half life in Sprague-Dawley rat at 1 mg/kg, iv or po measured after 0.033 to 24 hrs by LC/MS/MS analysis; settings: in vivo
# Cytochrome P450 2C9 = Cytochrome P450 2C9 (Homo sapiens, UniProt P11712); experiment: Reversible inhibition of CYP2C9 in human liver microsomes using (s)-warfarin as substrate preincubated for 30 mins followed by NADPH addition by LC/MS/MS analysis
# Cav1.2 = Cav1.2 (Homo sapiens, UniProt Q13936); experiment: Inhibition of human Cav1.2 expressed in CHO cells at 10 uM by QPatch HT assay; settings: CHO cells expressing human Cav1.2
# in vivo [8] = settings: beagle, dog, po, 1 mg/kg
# in vitro [9] = settings: dog, dog hepatocytes
# [10] = Apparent permeability in MDCK cells across apical to basolateral side at 10 uM incubated for 3 hrs by LC-MS/MS analysis; settings: dog
# in vitro [11] = settings: mouse, mouse hepatocytes
# CYP1A2 = target: T2, CYP1A2 (Homo sapiens, UniProt P05177); experiment: Time dependent inhibition of CYP1A2 in human liver microsomes using phenacetin as substrate incubated for 30 mins by LC-MS/MS analysis
# T2 sequence (P05177 whole entry): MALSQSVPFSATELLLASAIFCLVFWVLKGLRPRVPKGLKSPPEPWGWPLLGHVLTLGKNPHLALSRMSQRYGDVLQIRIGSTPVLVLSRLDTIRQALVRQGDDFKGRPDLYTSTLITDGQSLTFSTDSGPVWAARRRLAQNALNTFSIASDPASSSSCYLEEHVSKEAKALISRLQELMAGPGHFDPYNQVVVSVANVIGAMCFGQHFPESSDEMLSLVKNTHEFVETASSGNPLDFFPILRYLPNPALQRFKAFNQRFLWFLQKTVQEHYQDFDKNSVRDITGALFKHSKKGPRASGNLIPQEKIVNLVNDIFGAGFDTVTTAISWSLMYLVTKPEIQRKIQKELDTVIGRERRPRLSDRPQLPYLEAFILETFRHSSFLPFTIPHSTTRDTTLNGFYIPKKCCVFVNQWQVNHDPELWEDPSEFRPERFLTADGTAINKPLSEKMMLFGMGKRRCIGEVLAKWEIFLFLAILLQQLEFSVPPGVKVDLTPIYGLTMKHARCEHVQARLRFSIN
# Estrogen receptor [12] = target: T1, Estrogen receptor; settings: mcf7
# Description: Induction of estrogen receptor degradation in human MCF7 cells incubated for 4 hrs by Alexafluor -488 conjugate anti-mouse IgG staining based fluorescence method
# CYP3A4 [13] = target: T3, CYP3A4 (Homo sapiens, UniProt P08684); experiment: Time dependent inhibition of CYP3A4 in human liver microsomes using midazolam as substrate incubated for 10 mins by LC-MS/MS analysis
# in vitro [14] = settings: dog, dog liver microsomes
# CYP2C19 = CYP2C19 (Homo sapiens, UniProt P33261); experiment: Time dependent inhibition of CYP2C19 in human liver microsomes using (s)-mephenytoin as substrate incubated for 40 mins by LC-MS/MS analysis
# in vivo [15] = settings: Sprague-Dawley, rat, po, 100 mg/kg
# in vivo [16] = settings: Sprague-Dawley, rat, po, 1 mg/kg
# in vitro [17] = settings: rat, hepatocytes
# CYP2D6 = CYP2D6 (Homo sapiens, UniProt P10635); experiment: Time dependent inhibition of CYP2D6 in human liver microsomes using dextromethorphan as substrate incubated for 10 mins by LC-MS/MS analysis
# Nav1.5 = Nav1.5 (Homo sapiens, UniProt Q14524); experiment: Inhibition of human Nav1.5 expressed in CHO cells at 10 uM by QPatch HT assay; settings: CHO cells expressing human Nav1.5
# [18] = Volume of distribution at steady state in cynomolgus monkey at 1 mg/kg, iv or po measured after 0.033 to 24 hrs by LC/MS/MS analysis; settings: in vivo
# in vivo [19] = settings: cynomolgus monkey, iv, 1 mg/kg
# in vitro [20] = settings: human, microsomes
# CYP3A4 [21] = target: T3, CYP3A4; experiment: Time dependent inhibition of CYP3A4 in human liver microsomes using testosterone as substrate incubated for 10 mins by LC-MS/MS analysis
# MCF7 = experiment: cells; settings: Homo sapiens, MCF7, 72 h
# Description: Antiproliferative activity against human MCF-7 cells incubated for 72 hrs by Cell-titer Glo assay
# in vitro [22] = settings: mouse, mouse liver microsomes
# [23] = Half life in cynomolgus monkey at 1 mg/kg, iv or po measured after 0.033 to 24 hrs by LC/MS/MS analysis; settings: in vivo
# Cytochrome P450 2C19 = Cytochrome P450 2C19 (Homo sapiens, UniProt P33261); experiment: Reversible inhibition of CYP2C19 in human liver microsomes using (S)-Mephenytoin as substrate preincubated for 40 mins followed by NADPH addition by LC/MS/MS analysis
# in vivo [24] = settings: Sprague-Dawley, rat, iv, 1 mg/kg
# [25] = Volume of distribution at steady state in Beagle dog at 1 mg/kg, iv or po measured after 0.033 to 24 hrs by LC/MS/MS analysis; settings: in vivo
# in vitro [26] = settings: cynomolgus monkey, cynomolgus monkey liver microsomes
# CYP2C9 = CYP2C9 (Homo sapiens, UniProt P11712); experiment: Time dependent inhibition of CYP2C9 in human liver microsomes using s-warfarin as substrate incubated for 30 mins by LC-MS/MS analysis
# [27] = Half life in Beagle dog at 1 mg/kg, iv or po measured after 0.033 to 24 hrs by LC/MS/MS analysis; settings: in vivo
# [28] = Distribution coefficient, logD of the compound at pH 7.4; settings: octanol/water
# in vitro [29] = settings: human, hepatocytes
# Cytochrome P450 2D6 = Cytochrome P450 2D6 (Homo sapiens, UniProt P10635); experiment: Reversible inhibition of CYP2D6 in human liver microsomes using dextromethorphan as substrate preincubated for 10 mins followed by NADPH addition by LC/MS/MS analysis
# in vivo [30] = settings: beagle, dog, iv, 1 mg/kg
# in vivo [31] = settings: cynomolgus monkey, po, 100 mg/kg
# in vitro [32] = settings: cynomolgus monkey, cynomolgus monkey hepatocytes
# T3 sequence (P08684 whole entry): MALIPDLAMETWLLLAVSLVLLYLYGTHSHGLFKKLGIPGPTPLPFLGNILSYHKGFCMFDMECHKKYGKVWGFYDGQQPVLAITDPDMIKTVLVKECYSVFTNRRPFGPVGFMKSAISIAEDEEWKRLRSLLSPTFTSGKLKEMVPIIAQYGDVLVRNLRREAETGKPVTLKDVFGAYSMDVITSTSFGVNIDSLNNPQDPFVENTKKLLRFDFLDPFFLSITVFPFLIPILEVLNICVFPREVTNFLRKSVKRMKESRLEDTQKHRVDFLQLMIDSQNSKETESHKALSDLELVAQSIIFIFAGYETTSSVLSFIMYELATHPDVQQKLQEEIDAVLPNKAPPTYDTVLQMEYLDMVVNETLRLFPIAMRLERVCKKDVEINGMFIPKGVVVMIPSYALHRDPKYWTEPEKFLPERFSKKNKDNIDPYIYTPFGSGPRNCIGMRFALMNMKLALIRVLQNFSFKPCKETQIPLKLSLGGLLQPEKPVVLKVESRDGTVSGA
# Sequence of Cav1.2 (Q13936 whole entry): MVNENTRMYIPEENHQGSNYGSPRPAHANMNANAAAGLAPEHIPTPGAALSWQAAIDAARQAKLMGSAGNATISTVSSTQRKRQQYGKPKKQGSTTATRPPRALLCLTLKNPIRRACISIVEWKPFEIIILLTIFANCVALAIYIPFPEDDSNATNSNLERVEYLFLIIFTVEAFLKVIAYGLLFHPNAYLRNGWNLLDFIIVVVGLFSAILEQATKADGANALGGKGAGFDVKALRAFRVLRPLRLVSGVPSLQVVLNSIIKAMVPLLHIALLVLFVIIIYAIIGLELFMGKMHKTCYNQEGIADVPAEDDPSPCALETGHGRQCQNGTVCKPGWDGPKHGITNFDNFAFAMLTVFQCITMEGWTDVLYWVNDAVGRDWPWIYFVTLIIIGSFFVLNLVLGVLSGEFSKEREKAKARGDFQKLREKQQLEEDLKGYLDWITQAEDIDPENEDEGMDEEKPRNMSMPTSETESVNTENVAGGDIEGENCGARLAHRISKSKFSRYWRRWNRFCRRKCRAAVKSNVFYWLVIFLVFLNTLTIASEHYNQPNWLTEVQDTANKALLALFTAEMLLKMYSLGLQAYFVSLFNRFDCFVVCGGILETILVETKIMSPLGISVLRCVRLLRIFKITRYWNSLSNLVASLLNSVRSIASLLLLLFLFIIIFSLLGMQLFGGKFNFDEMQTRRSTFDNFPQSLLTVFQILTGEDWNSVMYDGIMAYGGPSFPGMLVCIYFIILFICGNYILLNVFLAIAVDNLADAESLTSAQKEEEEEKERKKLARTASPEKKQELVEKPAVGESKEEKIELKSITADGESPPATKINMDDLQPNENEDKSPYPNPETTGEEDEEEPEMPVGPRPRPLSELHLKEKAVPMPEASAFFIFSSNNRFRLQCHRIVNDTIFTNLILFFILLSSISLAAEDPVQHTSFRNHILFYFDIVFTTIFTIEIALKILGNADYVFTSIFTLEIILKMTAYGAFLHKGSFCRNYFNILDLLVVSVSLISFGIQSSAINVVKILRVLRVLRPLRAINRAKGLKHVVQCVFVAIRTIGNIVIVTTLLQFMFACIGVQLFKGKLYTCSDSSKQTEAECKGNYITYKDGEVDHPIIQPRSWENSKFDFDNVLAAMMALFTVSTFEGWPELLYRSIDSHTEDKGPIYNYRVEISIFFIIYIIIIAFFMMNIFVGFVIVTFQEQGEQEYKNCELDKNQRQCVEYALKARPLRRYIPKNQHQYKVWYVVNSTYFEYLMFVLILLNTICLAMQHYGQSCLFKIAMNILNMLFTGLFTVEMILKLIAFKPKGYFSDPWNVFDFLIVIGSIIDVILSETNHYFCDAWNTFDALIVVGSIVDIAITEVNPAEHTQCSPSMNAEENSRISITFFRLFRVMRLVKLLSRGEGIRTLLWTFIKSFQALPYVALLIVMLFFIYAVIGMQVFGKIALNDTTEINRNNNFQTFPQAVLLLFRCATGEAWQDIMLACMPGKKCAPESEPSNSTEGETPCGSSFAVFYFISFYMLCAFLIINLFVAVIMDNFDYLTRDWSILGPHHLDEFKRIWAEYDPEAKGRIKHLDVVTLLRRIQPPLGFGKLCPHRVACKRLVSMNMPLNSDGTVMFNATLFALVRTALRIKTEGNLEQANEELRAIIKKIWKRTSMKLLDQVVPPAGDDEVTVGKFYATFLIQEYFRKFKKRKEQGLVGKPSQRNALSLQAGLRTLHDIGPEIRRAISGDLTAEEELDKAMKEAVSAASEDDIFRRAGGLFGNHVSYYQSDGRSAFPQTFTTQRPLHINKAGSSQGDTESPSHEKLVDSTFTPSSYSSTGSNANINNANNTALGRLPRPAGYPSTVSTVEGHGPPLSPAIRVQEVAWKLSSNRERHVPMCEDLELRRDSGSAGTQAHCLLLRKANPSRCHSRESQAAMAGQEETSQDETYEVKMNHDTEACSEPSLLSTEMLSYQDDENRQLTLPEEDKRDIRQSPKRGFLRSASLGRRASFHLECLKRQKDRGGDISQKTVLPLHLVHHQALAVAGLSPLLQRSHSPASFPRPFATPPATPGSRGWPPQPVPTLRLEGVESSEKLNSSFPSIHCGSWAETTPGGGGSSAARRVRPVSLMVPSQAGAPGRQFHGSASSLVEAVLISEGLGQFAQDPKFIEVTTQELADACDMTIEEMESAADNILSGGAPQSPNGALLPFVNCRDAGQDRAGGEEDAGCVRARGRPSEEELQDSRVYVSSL
# Sequence of Cytochrome P450 2C19 (P33261 whole entry): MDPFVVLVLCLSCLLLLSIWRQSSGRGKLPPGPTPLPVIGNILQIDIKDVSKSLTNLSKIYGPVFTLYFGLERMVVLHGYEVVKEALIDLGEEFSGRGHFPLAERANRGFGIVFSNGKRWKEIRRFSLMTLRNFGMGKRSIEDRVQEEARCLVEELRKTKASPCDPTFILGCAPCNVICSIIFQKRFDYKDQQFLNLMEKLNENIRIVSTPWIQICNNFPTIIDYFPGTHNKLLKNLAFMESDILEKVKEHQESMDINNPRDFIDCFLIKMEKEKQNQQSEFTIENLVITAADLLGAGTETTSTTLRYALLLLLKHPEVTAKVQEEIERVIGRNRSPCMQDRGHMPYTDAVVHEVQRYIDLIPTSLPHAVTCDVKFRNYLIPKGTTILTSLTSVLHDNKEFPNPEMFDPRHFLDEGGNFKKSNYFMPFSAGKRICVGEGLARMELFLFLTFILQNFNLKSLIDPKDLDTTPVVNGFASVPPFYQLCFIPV
# Sequence of CYP2C19 (P33261 whole entry): as above
# Sequence of CYP2D6 (P10635 whole entry): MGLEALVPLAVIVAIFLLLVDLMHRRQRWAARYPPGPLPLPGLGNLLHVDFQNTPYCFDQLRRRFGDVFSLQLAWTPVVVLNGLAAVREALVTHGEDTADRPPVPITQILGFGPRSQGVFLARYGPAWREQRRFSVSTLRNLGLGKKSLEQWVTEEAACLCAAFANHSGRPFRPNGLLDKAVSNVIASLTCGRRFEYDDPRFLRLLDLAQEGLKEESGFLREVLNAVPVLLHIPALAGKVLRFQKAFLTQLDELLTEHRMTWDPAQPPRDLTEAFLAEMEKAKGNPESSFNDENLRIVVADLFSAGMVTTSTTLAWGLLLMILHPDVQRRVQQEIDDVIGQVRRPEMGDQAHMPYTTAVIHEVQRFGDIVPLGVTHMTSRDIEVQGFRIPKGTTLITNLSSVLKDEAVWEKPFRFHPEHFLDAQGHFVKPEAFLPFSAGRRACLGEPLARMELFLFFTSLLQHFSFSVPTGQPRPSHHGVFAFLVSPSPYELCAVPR
# Sequence of Cytochrome P450 2D6 (P10635 whole entry): as above
# Sequence of CYP2C9 (P11712 whole entry): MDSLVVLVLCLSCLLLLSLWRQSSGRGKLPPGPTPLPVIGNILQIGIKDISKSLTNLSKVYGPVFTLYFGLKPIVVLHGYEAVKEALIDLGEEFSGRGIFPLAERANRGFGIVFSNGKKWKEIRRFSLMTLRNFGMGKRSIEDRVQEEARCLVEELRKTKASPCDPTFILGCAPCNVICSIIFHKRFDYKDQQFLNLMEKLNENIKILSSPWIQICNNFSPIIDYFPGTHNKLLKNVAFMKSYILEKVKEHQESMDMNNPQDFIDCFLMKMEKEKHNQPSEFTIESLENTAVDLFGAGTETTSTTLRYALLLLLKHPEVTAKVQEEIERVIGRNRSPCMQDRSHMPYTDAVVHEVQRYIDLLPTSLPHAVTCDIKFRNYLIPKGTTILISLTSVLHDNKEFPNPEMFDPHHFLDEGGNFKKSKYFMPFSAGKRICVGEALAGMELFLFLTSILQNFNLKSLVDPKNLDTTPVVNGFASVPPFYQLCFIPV
smiles,measurement,setting,value
C[C@@H]1Cc2c([nH]c3ccccc23)[C@@H](c2c(F)cc(NC3CN(CCCF)C3)cc2F)N1CC(F)(F)CO [GIREDESTRANT],Vd,[1],15 L/kg
same,"CLint scaled at 1 h, 1 µM",in vitro [2],19 mL/min/kg
same,IC50,[3],6100 nM
same,solubility kinetic,[4],135 µM
same,bioavailability,in vivo [5],17%
same,IC50,Estrogen receptor [6],0.05 nM
same,half-life,[7],8 h
same,IC50,Cytochrome P450 2C9,> 10000 nM
same,inhibition at 10 µM,Cav1.2,15.7%
same,bioavailability,in vivo [8],55%
same,CLint scaled at 1 h,in vitro [9],< 7.8 mL/min/kg
same,"Papp A→B at 3 h, 10 µM",[10],3 ×10⁻⁶ cm/s
same,CLint scaled at 1 h,in vitro [11],33 mL/min/kg
same,inhibition at 0.5 h,CYP1A2,1%
same,DC50,Estrogen receptor [12],0.03 nM
same,inhibition at 10 min,CYP3A4 [13],-0.9%
same,"CLint scaled at 1 h, 1 µM",in vitro [14],13 mL/min/kg
same,inhibition at 40 min,CYP2C19,1.2%
same,bioavailability,in vivo [15],65%
same,bioavailability,in vivo [16],41%
same,CLint scaled at 1 h,in vitro [17],23 mL/min/kg
same,inhibition at 10 min,CYP2D6,8.1%
same,inhibition at 10 µM,Nav1.5,16.7%
same,Vd,[18],9.4 L/kg
same,clearance,in vivo [19],19 mL/min/kg
same,"CLint scaled at 1 h, 1 µM",in vitro [20],11 mL/min/kg
same,inhibition at 10 min,CYP3A4 [21],-4%
same,EC50,MCF7,0.4 nM
same,"CLint scaled at 1 h, 1 µM",in vitro [22],52 mL/min/kg
same,half-life,[23],7.3 h
same,IC50,Cytochrome P450 2C19,> 10000 nM
same,clearance,in vivo [24],21 mL/min/kg
same,Vd,[25],5.1 L/kg
same,"CLint scaled at 1 h, 1 µM",in vitro [26],22 mL/min/kg
same,inhibition at 0.5 h,CYP2C9,19%
same,half-life,[27],24 h
same,logD,[28],2.9
same,CLint scaled at 1 h,in vitro [29],11 mL/min/kg
same,IC50,Cytochrome P450 2D6,> 10000 nM
same,clearance,in vivo [30],3 mL/min/kg
same,bioavailability,in vivo [31],29%
same,CLint scaled at 1 h,in vitro [32],31 mL/min/kg

# From ChEMBL document CHEMBL4825708 (J Med Chem, 2021)
